Reference: patent publication US20100029542A1, “PROTEIN STERILISATION BY RADIATION AND ADDITION OF A STABILISING COMPOSITION” (priority 2006, published 2010)
Read-outs that look alike come from different tables or passages of the source.

Columns and labels:
glucose oxidase = target: T1, glucose oxidase (Aspergillus niger, UniProt P13006); assay: Activity recovery of glucose oxidase in dry formulations following gamma irradiation; assay type: physicochemical; conditions: for Enzyme activity remaining after gamma-irradiation: glucose oxidase 350 μg mL^−1 prior to drying, dry, 25-40 kGy, ambient temperature
T1 construct: purchased Biocatalysts G575P
T1 sequence (P13006 17-605): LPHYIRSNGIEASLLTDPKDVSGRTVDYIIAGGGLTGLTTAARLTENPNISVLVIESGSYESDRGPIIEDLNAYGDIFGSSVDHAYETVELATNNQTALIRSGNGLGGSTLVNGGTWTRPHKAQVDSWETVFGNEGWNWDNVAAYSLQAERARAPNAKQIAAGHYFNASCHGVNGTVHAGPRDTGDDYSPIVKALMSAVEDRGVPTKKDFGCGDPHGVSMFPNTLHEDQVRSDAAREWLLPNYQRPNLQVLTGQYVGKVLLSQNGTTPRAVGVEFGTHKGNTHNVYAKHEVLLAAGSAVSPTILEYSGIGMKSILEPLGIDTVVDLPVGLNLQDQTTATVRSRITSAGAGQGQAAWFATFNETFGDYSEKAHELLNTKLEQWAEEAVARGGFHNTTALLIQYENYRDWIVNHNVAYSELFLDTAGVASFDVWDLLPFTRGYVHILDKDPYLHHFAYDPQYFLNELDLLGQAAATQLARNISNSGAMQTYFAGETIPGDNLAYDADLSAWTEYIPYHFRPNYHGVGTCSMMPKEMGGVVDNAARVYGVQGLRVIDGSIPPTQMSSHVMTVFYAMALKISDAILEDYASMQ
Procedure: (§1) In each example, an aqueous solution of a protein was prepared with selected additives in an Eppendorf tube or in a glass vial. Water was removed from the formulation by drying under a stream of nitrogen at 30° C. and subsequent incubation at atmospheric pressure in the presence of a dessicant. The Eppendorf tubes or the glass vials were sealed and delivered to an industrial sterilisation service for gamma irradiation, with a dose range typical for sterile medical products. The gamma-irradiated samples were reconstituted on their return and analysed for protein activity or structural integrity. The results were compared with those achieved using control (i.e. non-irradiated) samples.
(§2) The dry samples (approx. 20 μg in an Eppendorf tube) were gamma-irradiated by an industry-standard commercial sterilising service provided by Isotron PLC (Swindon, Wilts, UK), using a Cobalt 60 gamma source at ambient temperature. The radiation dose was in the range of 25-40 kGy.
(§3) The original solutions (i.e. solutions prior to drying) contained 350 μg mL^−1 of glucose oxidase and typically the total of 100 mM of protective compounds (i.e. 100 mM in case of a single compound, 50 mM+50 mM in case of two compounds, 33.3 mM+33.3 mM+33.3 mM in the case of three compounds etc.). The solutions were dried and gamma irradiated. Following the gamma irradiation, the samples, both pre- and post-gamma irradiated, were assayed for glucose oxidase activity. This was performed according to the following procedure:
Water was added to the sample to achieve 350 μg mL^−1 of glucose oxidase. 50 μL of the solution was added to 50 mL of deionised water. The following solutions were then added: • 10 mL of reagent mix (5 parts of 0.1 M sodium phosphate, pH 6+4 parts 2% w/w starch+1 part of 1 mg/mL lactoperoxidase enzyme); • 5 mL of 100 mM potassium iodide; and • 5 mL of 20% w/w glucose solution.
These were mixed together quickly. Time=0 was counted from the addition of the glucose. After 5 min, 1 ml of 5 M aq. hydrochloric acid was added to stop the reaction. The absorbance was then read at 630 nm using a Unicam UV-visible spectrophotometer (Type: Helios gamma). If the colour intensity was too great to allow an accurate reading, the sample was diluted with a defined volume of deionised water to bring the colour back on scale. The results were expressed as percentage recovery, by reference to the absorbance measured in the pre-gamma irradiation samples.

human growth hormone [1] = target: T2, human growth hormone (Homo sapiens, UniProt P01241); assay: Recovery of structural integrity of human growth hormone in dry formulations following gamma irradiation (HPLC); assay type: physicochemical; conditions: as excipient in the formulation, disulphide bridge, HPLC
T2 construct: purchased National Institute of Biological Standards and Control; further samples on prescription from a GP surgery
T2 sequence (P01241 27-217): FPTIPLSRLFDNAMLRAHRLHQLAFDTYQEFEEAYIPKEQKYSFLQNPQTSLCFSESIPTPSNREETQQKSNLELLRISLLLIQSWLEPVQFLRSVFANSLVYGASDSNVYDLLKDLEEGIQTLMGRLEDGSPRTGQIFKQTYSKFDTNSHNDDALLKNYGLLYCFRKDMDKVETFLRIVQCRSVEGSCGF

[2] = cited from earlier work; for Rate constant k: Table 1, singlet oxygen scavengers, measured in specified solvents
human growth hormone [3] = target: T2, human growth hormone; assay: Recovery of structural integrity of human growth hormone in dry formulations following gamma irradiation (HPLC); assay type: physicochemical; conditions: Table 7, singlet oxygen scavengers, structural integrity by HPLC, human growth hormone 2.5 mg mL^−1 prior to drying, 25-40 kGy
Procedure: as §1, §2
Mobile phase was prepared by mixing 71 parts (by volume) of a solution of TRIS (0.05 M, in water adjusted with hydrochloric acid to a pH of 7.5) and 29 parts (by volume) of n-propylalcohol. The mobile phase was filtered prior to its use. The liquid chromatograph (Agilent 1100 series) was equipped with a 214 nm detector and a 4.6×250 mm column (Phenomenex 00G-4167-E0) packed with butylsilyl silica gel with a granulometry of 5 μm and a porosity of 30 nm, maintained at 45° C. The flow rate was maintained at 0.5 mL min^−1. 15 μL of aqueous samples of human growth hormone (typically 1-2.5 mg mL^−1) were injected. Results were expressed as % of peak area corresponding to the gamma irradiated sample with respect to that measured in non-irradiated sample.

Sandostatin = assay: Recovery of structural integrity of Sandostatin in dry formulations following gamma irradiation (HPLC); assay type: physicochemical; conditions: Table 8, singlet oxygen scavengers, structural integrity by HPLC, excipient:Sandostatin weight ratio 10:1, 25-40 kGy
Procedure: as §1, §2
Mobile phase A was 0.1 M triethylamine adjusted to pH 2.3 with phosphoric acid. Mobile phase B was acetonitrile. The mobile phases were filtered prior to their use. The following linear gradient was used: time 0: 90% A+10% B; time 35 min: 60% A+40% B. The liquid chromatograph (Agilent 1100 series) was equipped with a 214 nm detector, guard column and a 4.6×150 mm C18 column with a granulometry of 5 μm and a porosity of 30 nm, maintained at ambient temperature. The flow rate was maintained at 1.0 mL min^−1. Injection volume was 50 μL (typically sandostatin at 200 μg mL^−1). Results were expressed as % of main peak area (i.e. area of the peak corresponding to intact sandostatin measured in the gamma irradiated sample with respect to that measured in non-irradiated sample of identical composition). A chromatogram of a standard solution of sandostatin was recorded after every 12 samples to ensure that no drift in the position of the major peak had occurred. The control measurements ruled out any ambiguity in interpreting the chromatograms.

catalase = target: T3, catalase (Bos taurus, UniProt P00432); assay: Activity recovery of catalase in dry formulations following gamma irradiation; assay type: physicochemical, bovine; conditions: Table 6, singlet oxygen scavengers; catalase 100 μg mL^−1 prior to drying; dry; 25-40 kGy, ambient temperature
T3 construct: Catalase (from bovine liver, Sigma C9322, 2380 U /mg solid); purchased Sigma C9322; host or cells: bovine liver
T3 sequence (P00432 2-527 limits assumed): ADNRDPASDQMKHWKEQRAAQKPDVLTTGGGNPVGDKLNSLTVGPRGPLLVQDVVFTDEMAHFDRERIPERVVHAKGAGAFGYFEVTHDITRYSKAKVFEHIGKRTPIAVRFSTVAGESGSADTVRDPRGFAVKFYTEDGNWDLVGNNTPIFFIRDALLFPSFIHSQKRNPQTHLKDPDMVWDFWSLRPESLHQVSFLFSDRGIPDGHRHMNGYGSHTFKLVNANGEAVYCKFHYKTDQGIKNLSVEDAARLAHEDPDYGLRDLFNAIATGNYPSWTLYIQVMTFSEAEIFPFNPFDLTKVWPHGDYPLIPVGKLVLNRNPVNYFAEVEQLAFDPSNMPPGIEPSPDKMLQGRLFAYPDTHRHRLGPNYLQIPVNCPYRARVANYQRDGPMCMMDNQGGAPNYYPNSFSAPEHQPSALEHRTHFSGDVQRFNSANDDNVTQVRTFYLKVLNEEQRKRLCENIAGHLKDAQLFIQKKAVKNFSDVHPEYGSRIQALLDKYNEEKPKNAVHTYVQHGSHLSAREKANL
Procedure: as §1, §2
as §3, with “contained 100” for “contained 350”, “of catalase” for “of glucose oxidase”
Water was added to the sample to achieve 100 μg mL^−1 of catalase. 100 μL of the solution was added to a mixture of 18 mL of PBS and 2 mL of hydrogen peroxide (30 mM in water) in a 125 mL polypropylene pot and mixed. The resulting mixture was incubated at room temperature precisely for 30 min. In the meantime, the following reagents were mixed in a plastic cuvette for spectrophotometric measurements: • 2.73 mL of citrate/phosphate buffer (0.1 M, pH 5.0) • 100 μL of tetramethylbenzidine (TMB) (3 mg/mL, dissolved in dimethyl sulphoxide (DMSO)) • 100 μL of lactoperoxidase
Following the 30 min incubation period, 70 μL of the catalase containing mixture was added to the cuvette and absorbance was read in approximately 30 s. The results were expressed as percentage recovery, by reference to the absorbance measured in the fresh samples (i.e. prior to incubation at increased temperature).

SMILES | Enzyme activity remaining after gamma-irradiation (glucose oxidase; Table 3, prior-art antioxidants, vs non-irradiated) [%] | Compatibility of the compound with human growth hormone (human growth hormone [1]) | Compatibility of the compound with human growth hormone (human growth hormone [1]; listed as cysteine) | Rate constant k [2] | Compatibility of the compound with glucose oxidase (glucose oxidase; as excipient in the formulation) | Compatibility of the compound with human growth hormone (human growth hormone [1]; listed as N-acetylcysteine) | Enzyme activity remaining after gamma-irradiation (glucose oxidase; Table 5, singlet oxygen scavengers) [%] | Structural integrity remaining after gamma-irradiation (HPLC) (human growth hormone [3]) [%] | Enzyme activity remaining after gamma-irradiation (Sandostatin) [%] | Enzyme activity remaining after gamma-irradiation (catalase) [%] | Rate of reaction with singlet oxygen ([2]; Table 5) [M⁻¹ s⁻¹] | Rate of reaction with singlet oxygen ([2]; Table 6) [M⁻¹ s⁻¹] | Rate of reaction with singlet oxygen ([2]; Table 7) [M⁻¹ s⁻¹] | Rate of reaction with singlet oxygen ([2]; Table 8) [M⁻¹ s⁻¹]
N[C@@H](CS)C(=O)O [Cysteine] | 49.1 | **Compound was found incompatible with human growth hormone | incompatibility with human growth hormone | k = 5 × 10^7 L mol^−1 s^−1 |  |  |  |  |  |  |  |  |  | 
CC(=O)N[C@@H](CS)C(=O)O [N-Acetylcysteine] |  | **Compound was found incompatible with human growth hormone |  |  | **Compound was found incompatible with glucose oxidase | incompatibility with human growth hormone |  |  |  |  |  |  |  | 
N[C@@H](Cc1c[nH]c2ccccc12)C(=O)O [Tryptophan] |  |  |  | k = 1.3 × 10^7 L mol^−1 s^−1 |  |  | 37.0 | 54.6 | 82.2 | 9.1 | 1.3e+07 | 1.3e+07 | 1.3e+07 | 1.3e+07
